The numbers were not newly measured in patent publication US20080139497A1, “Use of ATP in controlled regional reperfusion as treatment during acute myocardial infarction” (priority 2006, published 2008), which cites them from elsewhere.

For data set [1] the following is noted: small amount, exogenously administered, hypoxic myocardium.
For data set [2], the system named is cultured myocardial cells. The conditions noted are these: addition to cultured myocardial cells.
Another data set concerns isolated muscle fibers. Particulars: externally added.
For data set [3] the following is noted: injected into isolated nonperfused hypothermic dog hearts.
For data set [4] the following is noted: in man.
The conditions of data set [5]: treatment after experimental acute myocardial ischemia.
For data set [6] the following is noted: following normothermic ischemia, infusion of low dose.
For data set [7] the following is noted: after acute renal failure in rats.
For data set [8] the following is noted: infusion; after hemorrhagic shock, severe burns, sepsis-peritonitis, post-ischemic hepatic failure, endotoxin shock.
The conditions of data set [9]: following prolonged ischemia, infusion.
For data set [10] the following is noted: added to the perfusate.
For data set [11] the following is noted: infused into left coronary artery, patients with coronary artery disease.
For data set [12] the following is noted: from a toxic injury.
For data set [13] the following is noted: after acute renal failure in mini-pigs.

Like-named read-outs stand apart in the source and are kept apart here.

Turning to `Nc1ncnc2c1ncn2[C@@H]1O[C@H](COP(=O)(O)OP(=O)(O)O)[C@@H](O)[C@H]1O` [ADP], the “ATP and total adenine nucleotide content” value in [1] was “not”.

For the molecule `Nc1ncnc2c1ncn2[C@@H]1O[C@H](COP(=O)(O)O)[C@@H](O)[C@H]1O` [AMP], in [1], the “ATP and total adenine nucleotide content” value is recorded as “not”. For the same molecule, the ATP content entry in data set [2] is recorded as “neither adenosine nor AMP produced this effect”.

`Nc1ncnc2c1ncn2[C@@H]1O[C@H](COP(=O)(O)OP(=O)(O)OP(=O)(O)O)[C@@H](O)[C@H]1O` [ATP, adenosine 5′-triphosphate]: the “ATP and total adenine nucleotide content” value in data set [1] is “increased the ATP and total adenine nucleotide content”. Besides, in the data set with isolated muscle fibers, the contraction result is listed as “induced contraction”. The ATP content entry in data set [2] is recorded as “caused an increase in ATP content”. Further, in [3], the “nucleotide and phosphocreatine levels” value was “improved nucleotide and phosphocreatine levels”.

`Nc1ncnc2c1ncn2[C@@H]1O[C@H](CO)[C@@H](O)[C@H]1O` [adenosine]: in data set [2], the ATP content result is “neither adenosine nor AMP produced this effect”.

Take ATP-MgCl2: the “safety and hemodynamic response” value in data set [4] was “has been demonstrated”. For the same molecule, the “protection of the heart from ischemia” value in data set [5] was “protects the heart from the adverse effects of ischemia”. Further, the “ornithine metabolism and tissue lactate level” value (during hemorrhagic shock, exogenously administered) is “can reverse the inhibition of ornithine metabolism and the change in tissue lactate level”. Further, the tissue lactate production result (infused) was “decreased tissue lactate production”. Also, the myocardial recovery entry in data set [6] is recorded as “improved myocardial recovery”. The “recovery of renal function” value in data set [7] and in [13] was “accelerate the recovery of renal function” in each case. Further, in [8], the survival of animals result was “proved beneficial for the survival of animals”. Moreover, in [9], the myocardial performance entry is “can improve myocardial performance”. For the same molecule, in data set [10], the “salvage of kidneys subjected to warm ischemia” value is “could be salvaged”. Moreover, in data set [11], the myocardial oxygen consumption result is on record as “reduction of myocardial oxygen consumption”. Besides, the renal recovery entry in data set [12] was “effective in hastening renal recovery”.
